# Laboratory results taken from US20090018134A1, “Compounds - 945” (AstraZeneca AB, priority 2007, published 2009).
# Molecular target: T1, mTOR (Homo sapiens, UniProt P42345)
# T1 construct: FLAG; made in house
# Assay: In Vitro mTOR Kinase Assay (Echo), Test (a)(ii)
# Type: biochemical
# Conditions: read-out: mTOR Kinase Assay (Echo)
# Method in brief: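 Inhibition expressed as IC50 from an AlphaScreen read-out: phospho-T389 p70 S6K antibody plus streptavidin donor/protein A acceptor beads, left overnight in the dark. The kinase reaction ran 2 h at room temperature, then was stopped with EDTA. Enzyme: FLAG-purified mTOR 1362-2549 fragment from stable HEK293 cells.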
# T1 sequence (P42345 1362-2549): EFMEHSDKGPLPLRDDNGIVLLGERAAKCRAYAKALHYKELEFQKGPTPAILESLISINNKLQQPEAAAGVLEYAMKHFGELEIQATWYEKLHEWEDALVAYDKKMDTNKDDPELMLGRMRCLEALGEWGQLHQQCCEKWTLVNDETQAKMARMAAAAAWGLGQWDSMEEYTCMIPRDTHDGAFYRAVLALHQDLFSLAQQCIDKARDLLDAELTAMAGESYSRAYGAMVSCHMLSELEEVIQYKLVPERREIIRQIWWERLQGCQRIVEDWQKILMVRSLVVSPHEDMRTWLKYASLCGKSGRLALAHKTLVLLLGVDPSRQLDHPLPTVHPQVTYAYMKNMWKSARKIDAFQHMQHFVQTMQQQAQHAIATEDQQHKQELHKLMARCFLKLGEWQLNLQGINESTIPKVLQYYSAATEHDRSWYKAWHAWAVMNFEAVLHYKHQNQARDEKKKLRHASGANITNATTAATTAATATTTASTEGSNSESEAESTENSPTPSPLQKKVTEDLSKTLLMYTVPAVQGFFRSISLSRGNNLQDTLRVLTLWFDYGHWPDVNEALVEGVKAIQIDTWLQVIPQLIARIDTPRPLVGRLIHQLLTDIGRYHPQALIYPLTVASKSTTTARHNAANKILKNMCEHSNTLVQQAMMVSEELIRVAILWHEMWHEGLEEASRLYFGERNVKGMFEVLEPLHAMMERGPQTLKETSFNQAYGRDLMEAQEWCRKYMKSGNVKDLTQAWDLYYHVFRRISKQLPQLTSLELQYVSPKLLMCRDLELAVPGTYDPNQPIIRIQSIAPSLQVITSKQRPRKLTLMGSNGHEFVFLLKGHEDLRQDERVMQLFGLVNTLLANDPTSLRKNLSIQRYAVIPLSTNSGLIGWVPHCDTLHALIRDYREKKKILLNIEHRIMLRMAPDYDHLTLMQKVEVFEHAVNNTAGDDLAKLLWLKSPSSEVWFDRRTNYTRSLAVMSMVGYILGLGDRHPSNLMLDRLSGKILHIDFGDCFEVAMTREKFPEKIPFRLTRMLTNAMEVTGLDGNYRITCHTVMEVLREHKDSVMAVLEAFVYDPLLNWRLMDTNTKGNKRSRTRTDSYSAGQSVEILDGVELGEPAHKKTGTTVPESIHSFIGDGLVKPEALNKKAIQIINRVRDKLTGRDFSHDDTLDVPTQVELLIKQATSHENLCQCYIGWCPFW
row,IC50 [nM],Structure (SMILES)
1,8.13,"Cc1nc(S(=O)(=O)C2(c3cc(N4CCOC[C@@H]4C)nc(-c4ccc(NC(=O)Nc5cnn(C)c5)cc4)n3)CC2)sc1C [Example 81, 1-[4-[4-[1-[(4,5-Dimethyl-1,3-thiazol-2-yl)sulfonyl]cyclopropyl]-6-[(3S)-3-methylmorpholin-4-yl]pyrimidin-2-yl]phenyl]-3-(1-methylpyrazol-4-yl)urea]"

# Same assay, conditions: table of enzyme assay Test (a)(ii); read-out: Test (a)(ii) IC50
row,IC50 [nM],Structure (SMILES)
1,10.3,"Cc1nc(S(=O)(=O)C2(c3cc(N4CCOC[C@@H]4C)nc(-c4ccc(NC(=O)NC5CC5)cc4)n3)CC2)sc1C [Example 80b, 3-cyclopropyl-1-[4-[4-[1-[(4,5-dimethyl-1,3-thiazol-2-yl)sulfonyl]cyclopropyl]-6-[(3S)-3-methylmorpholin-4-yl]pyrimidin-2-yl]phenyl]urea]"
2,9.21,"Cc1nc(S(=O)(=O)C2(c3cc(N4CCOC[C@@H]4C)nc(-c4ccc(NC(=O)NCCO)cc4)n3)CC2)sc1C [Example 80c, 1-[4-[4-[1-[(4,5-dimethyl-1,3-thiazol-2-yl)sulfonyl]cyclopropyl]-6-[(3S)-3-methylmorpholin-4-yl]pyrimidin-2-yl]phenyl]-3-(2-hydroxyethyl)urea]"
3,9.51,"CNC(=O)Nc1ccc(-c2nc(N3CCOC[C@@H]3C)cc(C3(S(=O)(=O)c4nc(C)c(C)s4)CC3)n2)cc1 [Example 80d, 1-[4-[4-[1-[(4,5-dimethyl-1,3-thiazol-2-yl)sulfonyl]cyclopropyl]-6-[(3S)-3-methylmorpholin-4-yl]pyrimidin-2-yl]phenyl]-3-methylurea]"
4,14.3,"CCNC(=O)Nc1ccc(-c2nc(N3CCOC[C@@H]3C)cc(C3(S(=O)(=O)c4nc(C)c(C)s4)CC3)n2)cc1 [Example 80e, 3-[4-[4-[1-[(4,5-dimethyl-1,3-thiazol-2-yl)sulfonyl]cyclopropyl]-6-[(3S)-3-methylmorpholin-4-yl]pyrimidin-2-yl]phenyl]-1-ethylurea]"
5,13.7,"Cc1nc(S(=O)(=O)C2(c3cc(N4CCOC[C@@H]4C)nc(-c4ccc(NC(=O)Nc5cnn(C)c5)cc4)n3)CC2)sc1C [Example 81, 1-[4-[4-[1-[(4,5-Dimethyl-1,3-thiazol-2-yl)sulfonyl]cyclopropyl]-6-[(3S)-3-methylmorpholin-4-yl]pyrimidin-2-yl]phenyl]-3-(1-methylpyrazol-4-yl)urea]"
6,9.39,"CNC(=O)Nc1ccc(-c2nc(N3CCOC[C@@H]3C)cc(C3(S(=O)(=O)c4ccc(F)cc4C)CC3)n2)cc1 [Example 82, 1-[4-[4-[1-(4-Fluoro-2-methylphenyl)sulfonylcyclopropyl]-6-[(3S)-3-methylmorpholin-4-yl]pyrimidin-2-yl]phenyl]-3-methylurea]"
7,26.5,"Cc1cc(F)ccc1S(=O)(=O)C1(c2cc(N3CCOC[C@@H]3C)nc(-c3ccc(NC(=O)NC4CC4)cc3)n2)CC1 [Example 82a, 3-cyclopropyl-1-[4-[4-[1-(4-fluoro-2-methylphenyl)sulfonylcyclopropyl]-6-[(3S)-3-methylmorpholin-4-yl]pyrimidin-2-yl]phenyl]urea]"
8,7.57,"Cc1cc(F)ccc1S(=O)(=O)C1(c2cc(N3CCOC[C@@H]3C)nc(-c3ccc(NC(=O)NCCO)cc3)n2)CC1 [Example 82b, 1-[4-[4-[1-(4-fluoro-2-methylphenyl)sulfonylcyclopropyl]-6-[(3S)-3-methylmorpholin-4-yl]pyrimidin-2-yl]phenyl]-3-(2-hydroxyethyl)urea]"
9,18.5,"Cc1cc(F)ccc1S(=O)(=O)C1(c2cc(N3CCOC[C@@H]3C)nc(-c3ccc(NC(=O)NCCF)cc3)n2)CC1 [Example 82c, 3-(2-fluoroethyl)-1-[4-[4-[1-(4-fluoro-2-methylphenyl)sulfonylcyclopropyl]-6-[(3S)-3-methylmorpholin-4-yl]pyrimidin-2-yl]phenyl]urea]"
10,24.3,"Cc1cc(F)ccc1S(=O)(=O)C1(c2cc(N3CCOC[C@@H]3C)nc(-c3ccc(NC(=O)NCC(F)F)cc3)n2)CC1 [Example 82d, 3-(2,2-difluoroethyl)-1-[4-[4-[1-(4-fluoro-2-methylphenyl)sulfonylcyclopropyl]-6-[(3S)-3-methylmorpholin-4-yl]pyrimidin-2-yl]phenyl]urea]"
11,20.8,"CCNC(=O)Nc1ccc(-c2nc(N3CCOC[C@@H]3C)cc(C3(S(=O)(=O)c4ccc(F)cc4C)CC3)n2)cc1 [Example 82e, 3-ethyl-1-[4-[4-[1-(4-fluoro-2-methylphenyl)sulfonylcyclopropyl]-6-[(3S)-3-methylmorpholin-4-yl]pyrimidin-2-yl]phenyl]urea]"
12,27.3,"Cc1cc(F)ccc1S(=O)(=O)C1(c2cc(N3CCOC[C@@H]3C)nc(-c3ccc(NC(=O)Nc4cnn(C)c4)cc3)n2)CC1 [Example 82f, 1-[4-[4-[1-(4-fluoro-2-methylphenyl)sulfonylcyclopropyl]-6-[(3S)-3-methylmorpholin-4-yl]pyrimidin-2-yl]phenyl]-3-(1-methylpyrazol-4-yl)urea]"
13,3.46,"C[C@H]1COCCN1c1cc(C2(S(=O)(=O)c3ccncc3)CCC2)nc(-c2ccc(NC(=O)NCCO)cc2)n1 [Example 83, 3-(2-Hydroxyethyl)-1-[4-[4-[(3S)-3-methylmorpholin-4-yl]-6-(1-pyridin-4-ylsulfonylcyclobutyl)pyrimidin-2-yl]phenyl]urea]"
14,4.83,"C[C@@H](CO)NC(=O)Nc1ccc(-c2nc(N3CCOC[C@@H]3C)cc(C3(S(=O)(=O)c4ccncc4)CCC3)n2)cc1 [Example 83a, 3-[(2S)-1-hydroxypropan-2-yl]-1-[4-[4-[(3S)-3-methylmorpholin-4-yl]-6-(1-pyridin-4-ylsulfonylcyclobutyl)pyrimidin-2-yl]phenyl]urea]"
15,11.4,"C[C@H](CO)NC(=O)Nc1ccc(-c2nc(N3CCOC[C@@H]3C)cc(C3(S(=O)(=O)c4ccncc4)CCC3)n2)cc1 [Example 83b, 3-[(2R)-1-hydroxypropan-2-yl]-1-[4-[4-[(3S)-3-methylmorpholin-4-yl]-6-(1-pyridin-4-ylsulfonylcyclobutyl)pyrimidin-2-yl]phenyl]urea]"
16,12.4,"C[C@H]1COCCN1c1cc(C2(S(=O)(=O)c3ccncc3)CCC2)nc(-c2ccc(NC(=O)NC(C)(C)CO)cc2)n1 [Example 83c, 3-(1-hydroxy-2-methylpropan-2-yl)-1-[4-[4-[(3S)-3-methylmorpholin-4-yl]-6-(1-pyridin-4-ylsulfonylcyclobutyl)pyrimidin-2-yl]phenyl]urea]"
17,47.2,"C[C@H]1COCCN1c1cc(C2(S(=O)(=O)c3ccncc3)CCC2)nc(-c2ccc(NC(=O)NCc3ncc[nH]3)cc2)n1 [Example 83d, 3-(1H-imidazol-2-ylmethyl)-1-[4-[4-[(3S)-3-methylmorpholin-4-yl]-6-(1-pyridin-4-ylsulfonylcyclobutyl)pyrimidin-2-yl]phenyl]urea]"
18,9.56,"CC[C@H]1COCCN1c1cc(C2(S(C)(=O)=O)CC2)nc(-c2ccc(NC(=O)NC)cc2)n1 [Example 84, 1-[4-[4-[(3S)-3-Ethylmorpholin-4-yl]-6-(1-methylsulfonylcyclopropyl)pyrimidin-2-yl]phenyl]-3-methylurea]"
19,9.09,"CC[C@H]1COCCN1c1cc(C2(S(C)(=O)=O)CC2)nc(-c2ccc(NC(=O)NC3CC3)cc2)n1 [Example 84a, 3-cyclopropyl-1-[4-[4-[(3S)-3-ethylmorpholin-4-yl]-6-(1-methylsulfonylcyclopropyl)pyrimidin-2-yl]phenyl]urea]"
20,3.85,"CC[C@H]1COCCN1c1cc(C2(S(C)(=O)=O)CC2)nc(-c2ccc(NC(=O)NCCO)cc2)n1 [Example 84b, 1-[4-[4-[(3S)-3-ethylmorpholin-4-yl]-6-(1-methylsulfonylcyclopropyl)pyrimidin-2-yl]phenyl]-3-(2-hydroxyethyl)urea]"
21,8.29,"CC[C@H]1COCCN1c1cc(C2(S(C)(=O)=O)CC2)nc(-c2ccc(NC(=O)NCCF)cc2)n1 [Example 84c, 1-[4-[4-[(3S)-3-ethylmorpholin-4-yl]-6-(1-methylsulfonylcyclopropyl)pyrimidin-2-yl]phenyl]-3-(2-fluoroethyl)urea]"
